Reference: patent publication US20070203749A1 (priority 2005, published 2007)
Read-outs that look alike come from different tables or passages of the source.

Assays:
XIAP-Bir3 = XIAP-Bir3 (Homo sapiens, UniProt P98170); assay: Fluorescence polarization binding assay, purified XIAP BIR-3 domain
Protocol: (§1) Binding constants were measured using fluorescence polarization as described in Zancta Nikolovska-Coleska et al., (2004) Analytical biochemistry, 332, 261-273. Briefly, various known concentrations of each test peptide were mixed with 5 nM fluorescently labeled peptide (AbuRPF-K(5-Fam)—NH2; FP peptide) and 40 nM of XIAP-Bir3, cIAP-1-Bir3 or cIAP-2-Bir3 in 100 μl of 0.1M Potassium Phosphate buffer, pH 7.5 containing 100 μg/ml bovine γ-globulin. These mixtures were incubated for 15 min at room temperature (approximately 22° C.). Following incubation, the polarization values (mP) were measured on a Victor^2V using a 485 nm excitation filter and a 535 nm emission filter. Kj(app) values were determined from the plot using nonlinear least-squares analysis using GraphPad Prism (Table 8).
(§2) In any event, binding to cIAP-1 and cIAP-2 or other IAPs can be determined using standard binding affinity assays, as illustrated above. […] We have utilized the specificity of this IAP binding motif in a fluorescence polarization assay to measure the binding affinities for cIAP-1 and cIAP-2 Antagonists. The fluorescence polarization assay consists of FP peptide, and the recombinant BIR3 domain of the XIAP protein. The FP peptide and mimics of the […] compete for binding to the BIR3 protein. […] If a peptide, peptidomimetic, or other small molecule being tested is a competitor, then it succeeds in displacing the FP peptide, resulting in a low mP value. Molecules that compete with the FP l peptide can be titrated and IC50 values determined (GraphPad Prism nonlinear regression curve-fitting program) by plotting mp values as the direct measure of fraction bound vs, the log of the compound concentration.

cIAP-1-Bir3 = cIAP-1-Bir3 (Homo sapiens, UniProt Q13490); assay: Fluorescence polarization binding assay, purified cIAP-1 BIR-3 domain; conditions: for Kd: BIR-3 domain; for binding to cIAP-1 and cIAP-2 relative to XIAP (fold more tightly): ratio of binding constants vs XIAP
Protocol: as §1, §2

cIAP-2-Bir3 = cIAP-2-Bir3 (Homo sapiens, UniProt Q13489); assay: Fluorescence polarization binding assay, purified cIAP-2 BIR-3 domain
Protocol: as §1, §2

SK-OV-3 cells = assay: MTT assay, growth inhibition of ovarian cancer cell line SK-OV-3; type: cell-based; conditions: Homo sapiens; for CC50: SK-OV-3 cells, 72 hrs, concentration giving 50% cell survival, Table 8; for EC50: SK-OV-3, SKOV-3 cells, Table 10
Protocol: The MTT assay was described in Hansen, M. B., Nielson, S. E., and Berg, K. (1989) J. Immunol Methods 119, 203-210 and incorporated herein by reference in its entirety. Briefly, SK-OV-3 cells were seeded in 96-well plates in McCoy's medium containing 10% fetal bovine serum albumin (10,000 per well) and incubated overnight at 37° C. […] This incubation time was optimal for measuring inhibitory effects of different analogs. 50 microliters of 5 mg/mL MTT reagent was added to each well, and the plates were incubated at 37° C. for 3 hours. At the end of the incubation period, 50 microliters of DMSO was added to each well to dissolve cells, and the optical density (OD) of the wells was measured with a microplate reader (Victor^2 1420, Wallac, Finland) at 535 nm. Cell survival (CS) was calculated using the following equation: CS=(OD treated well/mean OD control wells)×100%
The EC50 (Table 1). defined as the drug concentration that results in 50% CS, was derived by calculating the point where the dose-response curve crosses the 50% CS point using GraphPad Prism.

OVCAR-3 cells = assay: Synergistic toxicity with SN-38 (topoisomerase I inhibitor); type: cell-based; conditions: compared between Compounds N and H
cIAP-1 = target: T1, cIAP-1 (Homo sapiens, UniProt Q13490); assay: Effect of proteasome inhibitor on IAP degradation, western blot, cIAP-1; type: cell-based; conditions: SK-OV-3 cells, 20 hrs, absence of bortezomib
T1 construct: endogenous in cells; host or cells: SK-OV-3
Protocol: (§3) Cells were harvested after trypsinization by centrifuging at 2000 rpm for 10 min. The cell pellet was washed with PBS and lysed with RIPA to disrupt the cell membrane. The lysate after centrifugation was loaded onto a 5-20% polyacrylamide gel to separate the proteins. A Western blot was carried out using standard techniques and probed for XIAP and cIAP-1 proteins as described above.
(§4) Similarly, IAP degradation assays can be carried out by well known techniques, as illustrated above. […] Ubiquitinated protein is then escorted to the 26S proteasome where it undergoes final degradation and the ubiquitin is released and recycled. Once cIAP-1 Antagonists bind to cIAP-1, it results in perturbation of cell survival complexes or dissociation of natural ligands, signaling IAPs to either self ubiquinate or become targets for ubiquitination followed by proteasomal degradation. […] To further elucidate the machinery involved with this phenomenon, we focused on the regulation of IAP stability and asked whether or not the proteasome was involved in the degradation of cIAP-1 and XIAP.

XIAP = target: T2, XIAP (Homo sapiens, UniProt P98170); assay: Effect of proteasome inhibitor on IAP degradation, western blot, XIAP; type: cell-based; conditions: SK-OV-3 cells, 20 hrs, absence of bortezomib
T2 construct: endogenous in cells; host or cells: SK-OV-3
Protocol: as §3, §4

SK-OV-3^R cells = assay: MTT assay on IAP Antagonist-resistant SK-OV-3^R cells; type: cell-based; conditions: SK-OV-3^R cells (IAP Antagonist-resistant)
Protocol: (§5) Another unexpected observation we made was with respect to TRAIL sensitivity. IAP Antagonist-resistant […] cells (SK-OV-3^R) were generated by exposing the parental SK-OV-3 cells ([…]) to an IAP antagonist compound at a concentration that kills 95% of cells. Three days later, viable cells were transferred to a fresh flask and grown to confluency. Two weeks later, the cells were tested for IAP Antagonist sensitivity in an MTT assay as describe above and as expected, found these cells to be resistant to IAP Antagonist cytotoxicity.

SK-OV-3^S cells = assay: MTT assay, TRAIL sensitivity of parental SK-OV-3^S cells; type: cell-based; conditions: SK-OV-3^S cells (parental)
Protocol: as §5

[1] = fluorescence polarization, Table 8, read-out: XIAP, Kβ(spp)
[2] = fluorescence polarization, Table 8, read-out: cIAP-1, Kd(3pp)
[3] = fluorescence polarization, Table 8, read-out: cIAP-2, Kd(apβ)
[4] = Table 10, read-out: Kd(App), XIAP
[5] = Table 10, read-out: Kd(App), c-IAP-1
[6] = Table 10, read-out: Kd(App), cIAP-2

Chain of cIAP-2-Bir3 (Q13489 238-349 limits assumed): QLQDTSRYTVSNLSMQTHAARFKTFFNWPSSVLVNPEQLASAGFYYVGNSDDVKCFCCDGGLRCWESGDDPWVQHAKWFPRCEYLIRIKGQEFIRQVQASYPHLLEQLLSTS
Chain of cIAP-1-Bir3 (Q13490 253-363 limits assumed): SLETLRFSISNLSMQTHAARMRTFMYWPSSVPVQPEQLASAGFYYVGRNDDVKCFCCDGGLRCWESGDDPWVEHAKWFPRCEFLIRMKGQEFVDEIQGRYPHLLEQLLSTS
Chain of XIAP-Bir3 (P98170 241-356 limits assumed): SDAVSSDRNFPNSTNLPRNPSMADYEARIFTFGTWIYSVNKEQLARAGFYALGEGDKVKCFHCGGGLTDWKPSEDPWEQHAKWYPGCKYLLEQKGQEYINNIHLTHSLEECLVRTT
T1 sequence (Q13490 whole entry): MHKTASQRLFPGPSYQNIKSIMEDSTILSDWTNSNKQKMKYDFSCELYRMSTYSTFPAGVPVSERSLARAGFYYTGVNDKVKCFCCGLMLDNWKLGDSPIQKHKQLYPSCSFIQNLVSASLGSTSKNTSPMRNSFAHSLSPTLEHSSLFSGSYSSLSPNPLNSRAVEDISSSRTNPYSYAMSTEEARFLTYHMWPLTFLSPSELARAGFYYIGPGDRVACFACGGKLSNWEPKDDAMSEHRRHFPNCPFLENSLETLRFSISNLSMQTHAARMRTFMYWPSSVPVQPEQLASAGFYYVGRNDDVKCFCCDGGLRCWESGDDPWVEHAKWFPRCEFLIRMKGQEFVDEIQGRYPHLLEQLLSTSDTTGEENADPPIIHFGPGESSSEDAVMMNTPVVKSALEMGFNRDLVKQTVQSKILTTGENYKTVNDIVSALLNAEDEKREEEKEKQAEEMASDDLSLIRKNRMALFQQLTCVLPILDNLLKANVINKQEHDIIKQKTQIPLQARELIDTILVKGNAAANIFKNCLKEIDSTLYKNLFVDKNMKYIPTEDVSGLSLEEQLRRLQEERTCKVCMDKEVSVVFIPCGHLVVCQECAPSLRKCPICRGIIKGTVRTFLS
T2 sequence (P98170 whole entry): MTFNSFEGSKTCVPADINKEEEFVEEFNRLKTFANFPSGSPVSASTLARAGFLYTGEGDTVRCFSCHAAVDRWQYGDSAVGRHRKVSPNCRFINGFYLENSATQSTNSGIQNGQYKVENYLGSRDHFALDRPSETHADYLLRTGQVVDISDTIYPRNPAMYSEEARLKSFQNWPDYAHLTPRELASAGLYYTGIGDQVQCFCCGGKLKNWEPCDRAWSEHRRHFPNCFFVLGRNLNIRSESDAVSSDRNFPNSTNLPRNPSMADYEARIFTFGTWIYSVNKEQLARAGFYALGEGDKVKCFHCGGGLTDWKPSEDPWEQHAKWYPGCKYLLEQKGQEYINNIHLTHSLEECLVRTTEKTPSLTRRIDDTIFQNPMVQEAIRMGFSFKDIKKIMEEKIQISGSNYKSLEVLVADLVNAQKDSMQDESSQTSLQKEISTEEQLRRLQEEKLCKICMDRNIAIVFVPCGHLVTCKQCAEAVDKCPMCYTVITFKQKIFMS

Molecule: CNC(C)C(=O)NC(C(=O)N1CCCC1Cc1c(-c2ccc(N3CCOCC3)cc2)n(CCOCCOCCOC)c2cc(F)ccc12)C(C)(C)C (centres unmarked) [G]
- Kd (XIAP-Bir3; [1]): 400 nM
- Kd (cIAP-1-Bir3; [2]): 130 nM
- Kd (cIAP-2-Bir3; [3]): 180 nM
- CC50 (SK-OV-3 cells): 0.28 µM

Molecule: CNC(C)C(=O)NC(C(=O)N1CC(OC(C)=O)CC1Cc1c[nH]c2ccccc12)C(C)(C)C (centres unmarked) [I]
- Kd (XIAP-Bir3; [1]): 200 nM
- Kd (cIAP-1-Bir3; [2]): 72 nM
- Kd (cIAP-2-Bir3; [3]): 50 nM
- CC50 (SK-OV-3 cells): 0.004 µM

Molecule: CNC(C)C(=O)NC(C(=O)N1CCCC1Cc1c(-c2ccc(C(=O)OC)cc2)n(CCOCCOCCOC)c2cc(F)ccc12)C(C)(C)C (centres unmarked) [E]
- Kd (XIAP-Bir3; [1]): 90 nM
- Kd (cIAP-1-Bir3; [2]): 16 nM
- Kd (cIAP-2-Bir3; [3]): 8 nM
- CC50 (SK-OV-3 cells): 0.046 µM

Molecule: CNC(C)C(=O)NC(C(=O)N1CC(OC(C)=O)CC1Cc1c[nH]c2ccccc12)C(C)O (centres unmarked) [J]
- Kd (XIAP-Bir3; [1]): 460 nM
- Kd (cIAP-1-Bir3; [2]): 53 nM
- Kd (cIAP-2-Bir3; [3]): 26 nM
- CC50 (SK-OV-3 cells): 0.008 µM

Molecule: CNC(C)C(=O)NC(C(=O)N1CCCC1Cc1c[nH]c2ccc(C)cc12)C(C)O (centres unmarked) [Compound K]
- Kd (XIAP-Bir3; [1]): 310 nM
- Kd (cIAP-1-Bir3; [2]): 8 nM
- Kd (cIAP-2-Bir3; [3]): 6 nM
- CC50 (SK-OV-3 cells): 0.002 µM

Molecule: CNC(C)C(=O)NC(C(=O)N1CC(O)CC1Cc1c(-c2ccc(-c3[nH]c4ccccc4c3CC3CC(O)CN3C(=O)C(NC(=O)C(C)NC)C(C)(C)C)cc2)[nH]c2ccccc12)C(C)(C)C (centres unmarked) [N]
- Kd (XIAP-Bir3; [4]): 1 nM
- Kd (cIAP-1-Bir3; [5]): 1 nM
- binding to cIAP-1 and cIAP-2 relative to XIAP (fold more tightly) (cIAP-1-Bir3): comparable affinity
- Kd (cIAP-2-Bir3; [6]): 6 nM
- EC50 (SK-OV-3 cells): 7 nM
- synergistic toxicity with SN-38, synergistic volume (OVCAR-3 cells): comparable

Molecule: CN[C@@H](C)C(=O)N[C@H](C(=O)N1CCC[C@H]1Cc1c(-c2ccc(-c3c(C[C@@H]4CCCN4C(=O)[C@@H](NC(=O)[C@H](C)NC)C(C)(C)C)c4ccc(F)cc4n3CCO)cc2)n(CCO)c2cc(F)ccc12)C(C)(C)C [Q]
- cIAP-1 protein level by western blot (cIAP-1): complete disappearance
- XIAP protein level by western blot (XIAP): complete disappearance

Molecule: CCC(C)[C@H](NC(=O)[C@H](C)NC)C(=O)N1CCC[C@H]1Cc1c2n(c3ccc(F)cc13)CCn1c-2c(C[C@@H]2CCCN2C(=O)[C@@H](NC(=O)[C@H](C)NC)C(C)CC)c2cc(F)ccc21 (some centres unmarked) [A]
- Kd (XIAP-Bir3; [1]): 10 nM
- Kd (cIAP-1-Bir3; [2]): 0.5 nM
- Kd (cIAP-2-Bir3; [3]): 14 nM
- CC50 (SK-OV-3 cells): 0.0002 µM

Molecule: CNC(C)C(=O)NC(C(=O)N1CC(OC(C)=O)CC1Cc1c[nH]c2ccccc12)C(C)C (centres unmarked) [Compound H]
- Kd (XIAP-Bir3; [4]): 117 nM
- Kd (XIAP-Bir3; [1]): 120 nM
- Kd (cIAP-1-Bir3; [5]): 1 nM
- binding to cIAP-1 and cIAP-2 relative to XIAP (fold more tightly) (cIAP-1-Bir3): 117 fold
- Kd (cIAP-2-Bir3; [6]): 46 nM
- EC50 (SK-OV-3 cells): 7 nM
- CC50 (SK-OV-3 cells): 0.007 µM
- synergistic toxicity with SN-38, synergistic volume (OVCAR-3 cells): comparable

Molecule: CC(C)C(NC(=O)CN)C(=O)N1CC(Oc2ccccc2)CC1Cc1coc2ccccc12 (centres unmarked) [D]
- Kd (XIAP-Bir3; [1]): 160 nM
- Kd (cIAP-1-Bir3; [2]): 17 nM
- Kd (cIAP-2-Bir3; [3]): 33 nM
- CC50 (SK-OV-3 cells): 0.043 µM

Molecule: CNC(C)C(=O)NC(C(=O)N1CCCC1Cc1c(-c2ccc(F)cc2)n(CCOCCOCCOC)c2cc(F)ccc12)C(C)(C)C (centres unmarked) [F]
- Kd (XIAP-Bir3; [1]): 820 nM
- Kd (cIAP-1-Bir3; [2]): 26 nM
- Kd (cIAP-2-Bir3; [3]): 120 nM
- CC50 (SK-OV-3 cells): 0.079 µM

B1: TRAIL: tumor necrosis factor-related apoptosis inducing ligand, member of the TNF superfamily that induces apoptosis through death receptors (protein, UniProt P50591 1-281, looked up)
Tumor necrosis factor ligand …: MAMMEVQGGPSLGQTCVLIVIFTVLLQSLCVAVTYVYFTNELKQMQDKYSKSGIACFLKEDDSYWDPNDEESMNSPCWQVKWQLRQLVRKMILRTSEETISTVQEKQQNISPLVRERGPQRVAAHITGTRGRSNTLSSPNSKNEKALGRKINSWESSRSGHSFLSNLHLRNGELVIHEKGFYYIYSQTYFRFQEEIKENTKNDKQMVQYIYKYTSYPDPILLMKSARNSCWSKDAEYGLYSIYQGGIFELKENDRIFVSVTNEHLIDMDHEASFFGAFLVG
- TRAIL sensitivity in MTT assay (SK-OV-3^R cells): sensitive to TRAIL
- TRAIL sensitivity in MTT assay (SK-OV-3^S cells): resistant to TRAIL
